Test results published in publication PMC7910394, “Design of PSMA ligands with modifications at the inhibitor part: an approach to reduce the salivary gland uptake of radiolabeled PSMA inhibitors?” (EJNMMI Radiopharmacy and Chemistry, 2021).

How the values were obtained:
[1] = system: LNCaP tumor xenograft-bearing CB17-SCID mice; format: in vivo, mouse; details: 24 h p.i.
Procedure: All animal experiments were conducted in accordance with general animal welfare regulations in Germany (German animal protection act, as amended on 18.05.2018, Art. 141 G v. 29.3.2017 I 626, approval no. 55.2–1-54-2532-71-13) and the institutional guidelines for the care and use of animals. To establish tumor xenografts, LNCaP cells (approx. 10^7 cells) were suspended in 200 μL of a 1/1 mixture (v/v) of DMEM F-12 and Matrigel (BD Biosciences, Heidelberg, Germany) and inoculated subcutaneously onto the right shoulder of 6–8 weeks old CB17-SCID mice (Charles River Laboratories, Sulzfeld, Germany). Mice were used for experiments when tumor size reached 5–10 mm in diameter (3–6 weeks after inoculation).
(§1) Approximately 2–10 MBq (0.20 nmol) of the ^177Lu-labeled PSMA inhibitors were injected into the tail vein of LNCaP tumor xenograft-bearing male CB17-SCID mice (n = 3 to 5). They were sacrificed by CO2 asphyxiation and cervical dislocation either 1 h or 24 h post injection (p.i.) (n = 3 for [^177Lu]Lu-5, -6 & -7 (proinhibitor compounds I-III), n = 4 for [^177Lu]Lu-10 (alkyne), n = 5 for [^177Lu]Lu-3 (carbamate I) and n = 5 for [^177Lu]Lu-11 (tetrazole)). Selected organs were removed, weighed and organ activities measured in a γ-counter.
as §1, with “2 - 10” for “2–10”, “(alkyne) and” for “(alkyne),”

[2] = Lipophilicity (log D), shake-flask method; format: physicochemical; details: n-octanol/PBS pH 7.4, 177Lu-labeled compound, n = 6
Procedure: The log D values were determined, using the shake-flask method as previously described (Wurzer et al. [2020]). The radiolabeled tracer (0.5–1 MBq, 20 μL) was dissolved in 1 mL of a 1/1 mixture (v/v) of PBS (pH 7.4) and n-octanol in a reaction vial (n = 6). After vigorous mixing of the suspension for 3 min at r.t., the vial was centrifuged at 9000 rpm (ca. 7700×g) for 5 min at room temperature (Heraeus Biofuge 15, Thermo Fisher Scientific, Darmstadt, Germany) and 150 μL aliquots of both layers were measured in a ɣ-counter.

PSMA = target: T1, PSMA (Homo sapiens, UniProt Q04609); assay: Competitive binding assay (IC50) on LNCaP cells with ([125I]I-BA)KuE as radioligand; details: ([125I]I-BA)KuE 0.2 nM, HBSS (1% BSA), 4 °C, 1 h
T1 construct: host or cells: LNCaP human prostate cancer cells
T1 sequence (Q04609 whole entry): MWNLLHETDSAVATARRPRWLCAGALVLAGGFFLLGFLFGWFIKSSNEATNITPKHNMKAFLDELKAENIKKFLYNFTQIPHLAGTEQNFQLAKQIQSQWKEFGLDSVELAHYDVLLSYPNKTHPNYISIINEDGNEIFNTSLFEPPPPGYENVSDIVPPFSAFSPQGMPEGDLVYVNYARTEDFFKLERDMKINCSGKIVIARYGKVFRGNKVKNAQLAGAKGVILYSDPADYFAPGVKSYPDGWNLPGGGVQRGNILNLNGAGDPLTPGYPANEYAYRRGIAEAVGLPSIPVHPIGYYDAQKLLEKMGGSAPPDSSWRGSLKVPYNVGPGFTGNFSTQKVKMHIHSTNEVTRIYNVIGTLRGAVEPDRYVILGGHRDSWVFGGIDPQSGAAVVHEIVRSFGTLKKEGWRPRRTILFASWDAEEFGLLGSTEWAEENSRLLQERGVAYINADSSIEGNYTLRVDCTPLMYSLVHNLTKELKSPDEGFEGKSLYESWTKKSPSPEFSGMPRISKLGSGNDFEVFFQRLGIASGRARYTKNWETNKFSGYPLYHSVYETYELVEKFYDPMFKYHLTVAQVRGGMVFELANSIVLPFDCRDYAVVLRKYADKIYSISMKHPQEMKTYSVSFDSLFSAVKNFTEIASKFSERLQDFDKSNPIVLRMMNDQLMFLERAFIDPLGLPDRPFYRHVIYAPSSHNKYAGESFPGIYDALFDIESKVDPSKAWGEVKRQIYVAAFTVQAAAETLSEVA
Procedure: (§2) PSMA-positive LNCaP cells (300265; Cell Lines Service, Eppelheim, Germany) were cultivated in Dulbecco’s modified Eagle medium/Nutrition Mixture F-12 with GlutaMAX (1/1, DMEM-F12, Thermo Fisher Scientific, Darmstadt, Germany) supplemented with 10% fetal bovine serum (Merck KGaA, Darmstadt, Germany) and kept at 37 °C in a humidified 5% CO2 atmosphere. One day (24 ± 2 h) prior to all in vitro experiments, the cultivated LNCaP cells were harvested using a mixture of trypsin/ethylenediamine-tetraacetic acid (0.05%/0.02%) in PBS (Thermo Fisher Scientific, Darmstadt, Germany) and centrifuged at 1300 rpm (ca. 190×g) for 3 min at room temperature (Heraeus Megafuge 16, Thermo Fisher Scientific, Darmstadt, Germany). After centrifugation, the supernatant was disposed and the cell pellet was resuspended in culture medium. Cells were counted with a Neubauer hemocytometer (Paul Marienfeld GmbH & Co. KG, Lauda-Königshofen, Germany) and seeded in 24-well plates.
(§3) Detailed information on affinity and internalization experiments is provided in the supporting information. […] IC50 values of (^natI-BA)KuE were determined on the same day for monitoring assay performance and to identify abnormal deviations in uptake and/or affinity. […] Data were corrected for non-specific binding and normalized to the specific internalization observed for the radioiodinated reference compound (n = 3).
The culture medium was removed and the cells were washed with 500 µL of Hank’s balanced salt solution (HBSS) (Merck KGaA, Darmstadt, Germany), containing 1% bovine serum albumin (BSA) (Merck KGaA, Darmstadt, Germany). Afterwards, 200 µL of HBSS (1% BSA) were added to each well and equilibrated on ice (4 °C) for 15 min. […] Experiments were carried out in triplicates for each concentration. The final concentrations of unlabeled ligand ranged from 10^-11 - 10^-5 M and the final radioligand concentration was 0.2 nM in all binding assays. The cells were incubated for one hour at 4 °C. Incubation was terminated by removal of the incubation medium. The cells were washed with 250 µL of HBSS (1% BSA) and the wash medium was combined with the respective supernatant. This fraction represents the amount of free radioligand. The cells were lysed by addition of 250 µL of 1 M aqueous NaOH. The lysate of each well was transferred to the respective vial as well as 250 µL of 1 M NaOH used for rinsing the well. Quantification of the amount of free and bound activity was performed in a γ-counter. The corresponding IC50 values were calculated using the GraphPad PRISM7 software.

LNCaP cells = assay: Internalization study of 177Lu-labeled ligands in LNCaP cells, normalized to ([125I]I-BA)KuE; format: cell-based, human; details: 37 °C; for internalization (in words): time points 0.5 h, 2 h and 4 h; for %Internalization compared to the reference: 1.0 nM 177Lu-compound, normalized to ([125I]I-BA)KuE
Procedure: as §2, §3
The culture medium was removed and the cells were washed with 500 µL of DMEM-F12 containing 5% BSA. Afterwards, 200 µL of DMEM-F12 (5% BSA) were added to each well and left to equilibrate at 37 °C for 15 min. 25 µL of DMEM-F12 (5% BSA) were added to each well, followed by the addition of 25 µL of the respective ^177Lu-labeled ligand (10.0 nM in DMEM-F12 (5% BSA)). For blocking PSMA-specific binding and uptake, 25 µL of 2-(phosphonomethyl)pentane-1,5-dioic acid (2-PMPA) (100 µM in DMEM (5% BSA)) instead of DMEM-F12 (5% BSA) were added prior to radiotracer addition. […] Each experiment (control and blockade) was performed in triplicate. […] Incubation was terminated by placing the plate on ice (4 °C, 1 min) and removal of the incubation medium. The cells were washed with 250 µL of ice-cold PBS and the wash medium was combined with the respective supernatant. This fraction represents the amount of free radioligand. 250 µL of ice-cold 2-PMPA (10 µM in PBS) were added and the cells were incubated for 10 min at 4 °C. Afterwards, the cells were rinsed again with 250 µL of ice-cold PBS and the wash medium was combined with the respective supernatant. This fraction represents the amount of cell surface-bound ligand. In the last step, the cells were lysed by addition of 250 µL of 1 M aqueous NaOH. After 20 min, the lysate of each well was transferred to the respective vial as well as 250 µL of 1 M NaOH used for rinsing the well. This fraction represents the amount of internalized radioligand. Quantification of the amount of free, cell surface-bound and internalized activity was performed in a γ-counter.

[3] = in vivo; cited from earlier work

Row | Molecule | Biodistribution Heart [1] [% ID/g] | Biodistribution Intestine [1] [% ID/g] | Biodistribution Kidneys [1] [% ID/g] | Biodistribution Liver [1] [% ID/g] | Biodistribution Lung [1] [% ID/g] | Biodistribution Pancreas [1] [% ID/g] | Biodistribution Parotid gland [1] [% ID/g] | Biodistribution Spleen [1] [% ID/g] | Biodistribution Stomach [1] [% ID/g] | Biodistribution Submandibular gland [1] [% ID/g] | Biodistribution Tumor [1] [% ID/g] | log D [2] | IC50 (PSMA) [µM] | internalization (in words) (LNCaP cells; 1 h) | %Internalization compared to the reference (LNCaP cells; 0.5 h) | %Internalization compared to the reference (LNCaP cells; 1 h) | %Internalization compared to the reference (LNCaP cells; 2 h) | %Internalization compared to the reference (LNCaP cells; 4 h) | also measured
1 | CSCC[C@H](NC(=O)CC[C@H](NC(=O)N[C@@H](CCC(=O)N[C@H](CCCNC(=O)CCC(=O)NCCCC[C@@H](NC(=O)[C@@H](CNC(=O)c1ccc([Si](F)(C(C)(C)C)C(C)(C)C)cc1)NC(=O)CN1CCN(CC(=O)[O-])CCN(CC(=O)[O-])CCN(CC(=O)[O-])CC1)C(=O)O)C(=O)O)C(=O)O)C(=O)O)C(=O)O.[Lu+3] [^natLu/[^177Lu]Lu-5] | 0.01 ± 0.00 | 0.55 ± 0.04 | 0.48 ± 0.02 | 0.05 ± 0.00 | 0.33 ± 0.30 | 0.01 ± 0.00 | 0.02 ± 0.00 | 0.05 ± 0.01 | 0.14 ± 0.07 | 0.02 ± 0.01 | 0.09 ± 0.02 | −2.89 ± 0.18 | 26 ± 16 | no internalization could be detected | 0.00 ± 0.00% | 0.00 ± 0.00% | 0.17 ± 0.32% | 0.01 ± 0.05% | 
2 | CCCCCCC(NC(=O)C(CCC(=O)O)NC(=O)NC(CCC(=O)NC(CCCNC(=O)CCC(=O)NCCCCC(NC(=O)C(CNC(=O)c1ccc([Si](F)(C(C)(C)C)C(C)(C)C)cc1)NC(=O)CN1CCN(CC(=O)[O-])CCN(CC(=O)[O-])CCN(CC(=O)[O-])CC1)C(=O)O)C(=O)O)C(=O)O)C(=O)O.[Lu+3] (centres unmarked) [^natLu/[^177Lu]Lu-7] | 0.03 ± 0.01 | 0.10 ± 0.05 | 2.04 ± 0.75 | 0.17 ± 0.05 | 0.04 ± 0.01 | 0.02 ± 0.00 | 0.06 ± 0.01 | 0.08 ± 0.02 | 0.04 ± 0.01 | 0.05 ± 0.02 | 0.14 ± 0.05 | −2.37 ± 0.22 | 6.3 ± 3.6 | no internalization could be detected | 0.5 h: 0.00 ± 0.00 1 h: 0.00 ± 0.00 2 h: 0.00 ± 0.00 4 h: 0.00 ± 0.00% | 0.5 h: 0.00 ± 0.00 1 h: 0.00 ± 0.00 2 h: 0.00 ± 0.00 4 h: 0.00 ± 0.00% | 0.5 h: 0.00 ± 0.00 1 h: 0.00 ± 0.00 2 h: 0.00 ± 0.00 4 h: 0.00 ± 0.00% | 0.5 h: 0.00 ± 0.00 1 h: 0.00 ± 0.00 2 h: 0.00 ± 0.00 4 h: 0.00 ± 0.00% | Biodistribution Adrenals [1]: 0.03 ± 0.01 % ID/g; Biodistribution Blood [1]: 0.01 ± 0.00 % ID/g; Biodistribution Bone [1]: 0.04 ± 0.01 % ID/g; Biodistribution Muscle [1]: 0.01 ± 0.00 % ID/g
3 | botulinum toxin |  |  |  |  |  |  |  |  |  |  |  |  |  |  |  |  |  |  | decrease of the SUVmean in the right parotid gland compared to the left (control) [3]: up to 64%
